Structures can show the parent of a compound that is named as a salt.
Experiments:
[1] = Inhibition of platelet aggregation in human platelet rich plasma (hPRP)
[2] = as above; remark: listed apart in the source

SMILES	IC50 [1] [nM]	IC50 [2] [nM]
N=C(N)c1ccc(C2=NOC(CC(=O)NCCC(=O)O)C2)cc1 (configuration not stated)	60	–
N=C(N)c1ccc(C2=NOC(CC(=O)N3CCC(=O)C(C(=O)O)C3)C2)cc1 (configuration not stated) [1-{2-[3-(4-Carbamimidoyl-phenyl)-4,5-dihydro-isoxazol-5-yl]-acetyl}-4-oxo-piperidine-3-carboxylic acid; TFA]	–	6400
N=C(N)c1ccc(C2=NOC(CC(=O)N3CCCC(C(=O)O)C3)C2)cc1 (configuration not stated) [1-{2-[3-(4-Carbamimidoyl-phenyl)-4,5-dihydro-isoxazol-5-yl]-acetyl}-piperidine-3-carboxylic acid; TFA]	–	5200
N=C(N)c1ccc(C2=NOC(CC(=O)N3CCC(C(=O)O)CC3)C2)cc1 (configuration not stated) [1-{2-[3-(4-Carbamimidoyl-phenyl)-4,5-dihydro-isoxazol-5-yl]-acetyl}-piperidine-4-carboxylic acid; TFA]	–	2500
N=C(N)c1ccc(C2=NOC(CC(=O)N3CCCCCC3CC(=O)O)C2)cc1 (configuration not stated) [(1-{2-[3-(4-Carbamimidoyl-phenyl)-4,5-dihydro-isoxazol-5-yl]-acetyl}-azepan-2-yl)-acetic acid; TFA]	–	3700

The remaining lines, values ahead:

IC50 [1] [nM]	IC50 [2] [nM]	SMILES
–	280	N=C(N)c1ccc(C2=NOC(CC(=O)N3CCCCC3CC(=O)O)C2)cc1 (configuration not stated) [(1-{2-[3-(4-Carbamimidoyl-phenyl)-4,5-dihydro-isoxazol-5-yl]-acetyl}-piperidin-2-yl)-acetic acid; TFA]
–	1100	N=C(N)c1ccc(C2=NOC(CC(=O)N3CCCC3CC(=O)O)C2)cc1 (configuration not stated) [(1-{2-[3-(4-Carbamimidoyl-phenyl)-4,5-dihydro-isoxazol-5-yl]-acetyl}-pyrrolidin-2-yl)-acetic acid; TFA]

From BindingDB's records for doi:10.1016/s0960-894x(00)00023-8 (Dupont Pharmaceuticals, 2000)
